Data on 25 compounds can be found in PubChem BioAssay (NCI).

Values joined by “and” are separate entries in the source; they are usually repeats but may differ in a detail not shown here. Identical values can stand only once.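 Step 1: Grow cells in 96-well plates. Step 2: Expose to compound for 48 hours at 5 concentrations. Step 3: Interpolate endpoints linearly; if unreached, use highest concentration. TGI: total growth inhibition.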 Where a SMILES comes first, the peptide text is derived from it. [ ]: non-standard residue; d: D form. The star is where a group is joined. ξ: configuration not given here. ξF = NC(Cc1ccccc1)C(=O)O; Cbz = O=C(OCc1ccccc1)*

One experiment deals with 786-0 renal. Briefly: NCI anticancer screen, dose series, 48 h.
`C1CSCCSCCCS[C@@H]2CCCCC2SC1` (stereo not given in full) gave a TGI of over 100 µM.

`O=[N+]([O-])c1ccc(/C=N/Nc2nc3ccccc3[nH]2)o1`: the TGI is over 100 µM.

In turn, `NNc1nnc(CCCCCCCCc2nnc(NN)n2N)n1N` had a TGI of over 100 µM.

`CCOC(=O)c1c(NC(=O)c2ccccc2)c(C#N)c2n1CCCCC2` displayed a TGI of over 100 µM.

`O=c1cc(Nc2cccc(O)c2)[nH]c(=O)[nH]1` had a TGI of over 100 µM.

Regarding `CCN1/C(=C/C#C/C(C)=C\c2sc3ccc(Cl)cc3[n+]2CC)Sc2ccc(Cl)cc21`, the TGI was found to be 15.1 µM.

Turning to `CSc1nncc(-c2cc3c(c(SC)n2)CCCC3)n1`, the TGI was over 100 µM.

In turn, `O=C1c2ccccc2N2OC3(N4CCOCC4)CCCC3C12c1ccccc1` (stereo not given) registered a TGI of over 100 µM.

Consider `Cn1c2ccccc2c(=O)c2c(O)cc3c(c21)C1OCC(C)(O)C1O3` (stereo not given), for which the TGI is over 100 µM.

Take `COC(=O)[C@@H]1CO[C@H](C(C)(C)C)N1C(=O)N1C=CC(=O)C[C@H]1C`: the TGI is over 100 µM.

Consider `COc1cc(C2c3cc4c(cc3OC(NN)C2C)OCO4)cc(OC)c1O` (stereo not given), for which the TGI was over 100 µM.

Compound `COC(=O)[C@@]12OC[C@]34C([C@@H](O)C1O)[C@@]1(C)CC(=O)C(OC(=O)CC(C)C(F)(F)F)=C(C)C1C[C@H]3OC(=O)[C@H](O)[C@H]42` (stereo not given in full) came in with a TGI of 38.5 µM.

Turning to `NC1=NC2(COC(c3ccccc3)(c3ccccc3)c3ccccc3)OC(COC(c3ccccc3)(c3ccccc3)c3ccccc3)C(O)C2O1` (stereo not given), the TGI is over 100 µM.

For `CCOC(=O)CNC(=O)C(Cc1ccccc1)NC(=O)OCc1ccccc1` (stereo not given) (Cbz-[ξF]-Gly-OEt), the TGI was over 100 µM.

The compound `CC1(C)O[C@@H]2[C@@H](COC(C)(C)O[C@H]2C2SCCCS2)O1` came in with a TGI of over 100 µM.

The compound `O=C(CCc1cc(O)cc(O)c1)NCCc1cc(O)cc(OCc2ccccc2)c1` had a TGI of over 100 µM.

In turn, `O=C(O)CCCc1ccc2c(c1)CC1(C2)Cc2cc3c(cc2C1)CCCC3` showed a TGI of 58.6 µM.

Take `COC(=O)/C=C(\C(=O)OC)c1cc(C)c2cc(C(C)C)ccc(C)c1-2`: the TGI is over 100 µM.

`C=CCON(C(=O)OC(C)(C)C)C(C)(C)C` had a TGI of over 100 µM.

For `O=[N+]([O-])c1cccc2nc3ccccc3c(NCCCCCNc3c4ccccc4nc4cccc([N+](=O)[O-])c34)c12`, the TGI is 0.0666 µM and 0.0332 µM.

`Cc1cc2nc3c(C#N)c(-c4ccccc4)/c(=C\Nc4ccc(F)cc4)c(=O)n3c2cc1C` showed a TGI of over 100 µM.

As for `COC(=O)c1c(C)cccc1/C=C1\Cc2ccc(C)c(C)c2C1=O`, the TGI was over 100 µM.

In turn, `O=C(c1ccccc1)C1(Br)S(=O)(=O)OCCOS1(=O)=O` returned a TGI of over 100 µM.

For `C1CCC(N=C2N(C3CCCCC3)C(=NC3CCCCC3)N2C2CCCCC2)CC1`, the TGI was over 100 µM.

Consider `O=S(=O)(/N=C(\NO)Nc1ccc(Cl)cc1)c1cc(C(F)(F)F)cc(C(F)(F)F)c1`, for which the TGI was determined as 33.4 µM.

A further experiment concerns DU-145 prostate. Briefly: NCI anticancer screen, dose series, 48 h.
Take `O=[N+]([O-])c1ccc(/C=N/Nc2nc3ccccc3[nH]2)o1`: the TGI is 27.1 µM.

As to `NNc1nnc(CCCCCCCCc2nnc(NN)n2N)n1N`, the TGI is over 100 µM.

`CCOC(=O)c1c(NC(=O)c2ccccc2)c(C#N)c2n1CCCCC2` displayed a TGI of over 100 µM.

The compound `CCN1/C(=C/C#C/C(C)=C\c2sc3ccc(Cl)cc3[n+]2CC)Sc2ccc(Cl)cc21` came in with a TGI of 15.5 µM.

On to `CSc1nncc(-c2cc3c(c(SC)n2)CCCC3)n1`, for which the TGI was over 100 µM.

`Cn1c2ccccc2c(=O)c2c(O)cc3c(c21)C1OCC(C)(O)C1O3` (stereo not given) registered a TGI of over 100 µM.

Consider `COC(=O)[C@@H]1CO[C@H](C(C)(C)C)N1C(=O)N1C=CC(=O)C[C@H]1C`, for which the TGI was over 100 µM.

`COc1cc(C2c3cc4c(cc3OC(NN)C2C)OCO4)cc(OC)c1O` (stereo not given) came in with a TGI of over 100 µM.

Take `NC1=NC2(COC(c3ccccc3)(c3ccccc3)c3ccccc3)OC(COC(c3ccccc3)(c3ccccc3)c3ccccc3)C(O)C2O1` (stereo not given): the TGI was over 100 µM.

In turn, `CCOC(=O)CNC(=O)C(Cc1ccccc1)NC(=O)OCc1ccccc1` (stereo not given) (Cbz-[ξF]-Gly-OEt) yielded a TGI of over 100 µM.

`CC1(C)O[C@@H]2[C@@H](COC(C)(C)O[C@H]2C2SCCCS2)O1` registered a TGI of over 100 µM.

In turn, `O=C(CCc1cc(O)cc(O)c1)NCCc1cc(O)cc(OCc2ccccc2)c1` registered a TGI of over 100 µM.

As for `COC(=O)/C=C(\C(=O)OC)c1cc(C)c2cc(C(C)C)ccc(C)c1-2`, the TGI was over 100 µM.

On to `C=CCON(C(=O)OC(C)(C)C)C(C)(C)C`, for which the TGI is over 100 µM.

Turning to `O=[N+]([O-])c1cccc2nc3ccccc3c(NCCCCCNc3c4ccccc4nc4cccc([N+](=O)[O-])c34)c12`, the TGI came to 0.0929 µM.

The compound `COC(=O)c1c(C)cccc1/C=C1\Cc2ccc(C)c(C)c2C1=O` returned a TGI of over 100 µM.

On to `O=S(=O)(/N=C(\NO)Nc1ccc(Cl)cc1)c1cc(C(F)(F)F)cc(C(F)(F)F)c1`, for which the TGI was 44.1 µM.

Another experiment deals with HCT-15 colon. Briefly: NCI anticancer screen, dose series, 48 h.
In the case of `C1CSCCSCCCS[C@@H]2CCCCC2SC1` (stereo not given in full), the TGI turned out to be 28.8 µM.

For the compound `O=[N+]([O-])c1ccc(/C=N/Nc2nc3ccccc3[nH]2)o1`, the TGI worked out at 42.8 µM.

As for `NNc1nnc(CCCCCCCCc2nnc(NN)n2N)n1N`, the TGI is over 100 µM.

On to `CCOC(=O)c1c(NC(=O)c2ccccc2)c(C#N)c2n1CCCCC2`, for which the TGI was over 100 µM.

In the case of `O=c1cc(Nc2cccc(O)c2)[nH]c(=O)[nH]1`, the TGI was over 100 µM.

The compound `CCN1/C(=C/C#C/C(C)=C\c2sc3ccc(Cl)cc3[n+]2CC)Sc2ccc(Cl)cc21` gave a TGI of over 100 µM.

`CSc1nncc(-c2cc3c(c(SC)n2)CCCC3)n1`: the TGI was over 100 µM.

Compound `O=C1c2ccccc2N2OC3(N4CCOCC4)CCCC3C12c1ccccc1` (stereo not given) had a TGI of over 100 µM.

The compound `Cn1c2ccccc2c(=O)c2c(O)cc3c(c21)C1OCC(C)(O)C1O3` (stereo not given) displayed a TGI of over 100 µM.

In turn, `COc1cc(C2c3cc4c(cc3OC(NN)C2C)OCO4)cc(OC)c1O` (stereo not given) had a TGI of 34.2 µM.

The compound `COC(=O)[C@@]12OC[C@]34C([C@@H](O)C1O)[C@@]1(C)CC(=O)C(OC(=O)CC(C)C(F)(F)F)=C(C)C1C[C@H]3OC(=O)[C@H](O)[C@H]42` (stereo not given in full) displayed a TGI of over 62.5 µM.

With `NC1=NC2(COC(c3ccccc3)(c3ccccc3)c3ccccc3)OC(COC(c3ccccc3)(c3ccccc3)c3ccccc3)C(O)C2O1` (stereo not given), the TGI was over 100 µM.

As to `CCOC(=O)CNC(=O)C(Cc1ccccc1)NC(=O)OCc1ccccc1` (stereo not given) (Cbz-[ξF]-Gly-OEt), the TGI is over 100 µM.

In turn, `CC1(C)O[C@@H]2[C@@H](COC(C)(C)O[C@H]2C2SCCCS2)O1` registered a TGI of over 100 µM.

In turn, `O=C(CCc1cc(O)cc(O)c1)NCCc1cc(O)cc(OCc2ccccc2)c1` yielded a TGI of over 100 µM.

Regarding `O=C(O)CCCc1ccc2c(c1)CC1(C2)Cc2cc3c(cc2C1)CCCC3`, the TGI worked out at 23.7 µM.

Consider `COC(=O)/C=C(\C(=O)OC)c1cc(C)c2cc(C(C)C)ccc(C)c1-2`, for which the TGI is 27.5 µM.

In turn, `C=CCON(C(=O)OC(C)(C)C)C(C)(C)C` came in with a TGI of over 100 µM.

For `O=[N+]([O-])c1cccc2nc3ccccc3c(NCCCCCNc3c4ccccc4nc4cccc([N+](=O)[O-])c34)c12`, the TGI was 0.0573 µM and 0.119 µM.

In turn, `Cc1cc2nc3c(C#N)c(-c4ccccc4)/c(=C\Nc4ccc(F)cc4)c(=O)n3c2cc1C` gave a TGI of over 100 µM.

Turning to `COC(=O)c1c(C)cccc1/C=C1\Cc2ccc(C)c(C)c2C1=O`, the TGI was over 100 µM.

The compound `O=C(c1ccccc1)C1(Br)S(=O)(=O)OCCOS1(=O)=O` came in with a TGI of over 100 µM.

`C1CCC(N=C2N(C3CCCCC3)C(=NC3CCCCC3)N2C2CCCCC2)CC1` displayed a TGI of over 100 µM.
